Test [1] deals with radiosensitive (HCC1719, H23, H1650, H1395 and H2228) NSCLC cell lines. The experiment in a line: Clonogenic survival with IR, radiosensitive NSCLC lines. The format is cell-based, Human. As to the method:
Cells were serially diluted to appropriate concentrations and plated into 60-mm dish in triplicate for 4 h. Then cells were treated with the indicated drugs, and irradiated 4 hours later with graded doses of radiation for concurrent treatment or irradiated and 4 hours later the drugs added for post-treatment. All cells were irradiated at room temperature in ambient air using a 137Cs source (Mark 1-68 irradiator, JL Shepherd & Associated). Surviving colonies were stained with crystal violet approximately 10 to 14 days later and colonies formed with more than 50 cells were counted. Clonogenic fraction of irradiated cells was normalized to the plating efficiency of unirradiated controls. The data are presented as the mean±SD. The curve S=e^−(αD+βD2) was fitted to the experimental data using a least square fit algorithm using the program Sigma Plot 11.0 (Systat Software, Inc.).

Test [2] relates to non-homologous end joining (NHEJ). The experiment in a line: Green fluorescent protein NHEJ reporter assay, H1299. The class given is cell-based, Human. The following applies: H1299 cells with integrated construct. As to the method: The green fluorescent protein assay was performed as described by Seluanov et al. To generate reporter cell lines 2 million H1299 cells were transfected with 0.5 μg of linearized NHEJ-I, or HR reporter constructs using the Amaxa Nucleofector; program X-005. G418, at 1 mg/ml, was added to the media 1 day post-transfection. Then Transient expression of the I-SceI endonuclease was used to generate a DNA DSB at the integrated GFP gene sequences. Briefly, H1299 cells containing the NHEJ or the HR constructs treated by 4 h with JIB-04 or DMSO were transfected with the pCMV3xnls-I-SceI (5 μg, functional endonuclease) and a pN1-mCherry plasmid (0.05 μg) as transfection control as previously stated. For the analysis of NHEJ and HR cells were harvested, resuspended in ˜1 ml 1×PBS, put on ice, and run on a BD FACScan instrument. GFP and mCherry fluorescence was analyzed using FlowJo software. Red-versus-green was plotted and DNA repair efficiency was calculated from the number of GFP-positive cells divided by the number of cells mCherry-positive cells.
On the technique in general: In a reporter assay the amount or activity of a reporter protein is the signal.

Test [3] deals with HR repair in U2OS cells. The experiment in a line: GFP HR reporter assay, U2OS cells. The format is cell-based. As to the method: FIGS. 29A-29B. […] FIG. 29A: U2OS cells were transfected with the NHEJ or HR constructs (0.25 ug and 0.5 ug respectively) and a pN1-mCherry plasmid (0.05 ug). Then cells were seeded in the presence or absence of JIB-04. Cells were analyzed by flow cytometry for GFP expression 12 h and 24 h after transfection using green-versus-red fluorescent plot. 10,000 cells were analyzed in each sample and NHEJ or HR Repair Frequency (% GFP+ cells/% mCherry+ cells) plotted. Average+/−SEM of triplicates for one of two representative experiments is shown. ***p<0.001 vs control (Kruskal-Wallis). FIG. 29B: Representative FACS traces for the analysis of NHEJ and HR shown in A.

Test [4] deals with DNA-PKcs. In words: DNA-PKcs p-T2609 foci kinetics after IR. The class given is cell-based, Human. The following applies: H1299; JIB-04 16 nM 4 h, 10 Gy. As to the method:
NSCLCs were seeded onto Lab-Tek II Chamber Slides (Thermo Fisher) and 24 hours later pretreated with JIB-04 or DMSO for 4 h. Then cells were exposed to a total dose of 2 Gy (γH2AX and 53BP1) or 10 Gy (RAD-51 and DNAPKcs p-T2609) radiation. For knockdown and overexpression experiments H1299 cells were transfected using the Amaxa Nucleofector; program X-005. Specifically, 3×10^6 were transfected with siRNA duplexes targeting JMJD2A, JMJD2B, Jarid1A, Jarid1b, scrambled siRNA (250 nM final concentration) or expression vectors pCMVHA-JMJD2A, pCMVHA-JMJD2B, pCMVHA-Jarid1A, pCMVHA-Jarid1B, PC-2 for 72 hours, followed by quantification of expression or irradiation. Then, cells were fixed in 4% formaldehyde/PBS for 15 min, permeabilized with 0.5% Triton X-100 for 15 min on ice, and blocked with 5% bovine serum albumin in PBS for 1 h. The slides were incubated with an antibody against phospho-Histone γH2AX (1:1000, 3 h at room temperature), 53BP1 (1:500, 3 h at room temperature), Rad-51 (1:500, 48 hs 4° C.) or DNAPKcs p-T2609 (1:500, 48 hs 4° C.). Alexa Fluor 488-conjugated goat anti-Rabbit, […] goat anti-mouse or rhodamine red-conjugated goat anti-mouse secondaries antibodies were used (1:1000, 1 h at room temperature). […] Cells were analyzed on a Zeiss upright fluorescent microscope.

Test [5] relates to H3K4me3 at DSBs. In words: γH2AX immunoprecipitation, H3K4me3 at DSBs. The class given is cell-based, Human. The following applies: JIB-04 4 h, IR 20 Gy. As to the method:
For Histone demethylase activity determination 10×10^6 H1299 cells were seeded in P150 plates. Next day cells were preincubated with JIB-04 for 4 h and then irradiated with 20 Gy. Media was removed from cells, washed with PBS and fixed with 3% w/v PFA, 2% w/v sucrose in PBS for 1 min. Then cells were washed, scraped into media, pelleted by centrifugation (at 500 g for 2 min) and washed with Phosphatase inhibitor 1×, 1 μM Wortmannin (WM) and protease inhibitors 1× (Sigma). Cell pellets were re-suspended in 2.5× the packed cell volume (PCV) of Nucleosome Preparation Buffer (NPB, 10 mM HEPES [pH 7.9], 10 mM KCl, 1.0 mM CaCl2, 1.5 mM MgCl2, 0.34 M sucrose, 10% glycerol, 1 mM DTT, 0.1% Triton X-100) containing Phosphatase inhibitor, 1 μM Wortmannin (WM) and protease inhibitors (Sigma) and 100 U ml-1 micrococcal nuclease (MNase) and incubated at […] for 45 min (note: WM is required to block in vitro DNA-PK/ATM activation by MNase-produced DSBs). An equal volume of Nucleosome Solubilization Buffer (NSB=Nucleosome preparation buffer+2% [v/v] NP-40, 2% [v/v] Triton X-100, 600 mM NaCl) was then added. Samples were then vortexed, sonicated briefly and centrifuged at 10,000 rpm for 10 min. […] Protein levels on samples were quantified and equal amounts of protein run on 4-12% SDS acrylamide gels. […] Quantification was done using the using ImageJ software (National Institute of Health, NIH)

Each structure is given as a SMILES string.

Data on one molecule can be found in patent US11497740B2, “Use of Jumonji C demethylase inhibitors for the treatment and prevention of chemotherapy resistance and radioresistance in cancer” (THE BOARD OF REGENTS OF THE UNIVERSITY OF TEXAS SYSTEM, priority 2016, dated 2022).

Turning to `Clc1ccc(N/N=C(\c2ccccc2)c2ccccn2)nc1` [JIB-04], in test [1], the “survival fraction at 2 Gy of radiation (SF2)” value is on record as “not affecting already radiosensitive lines”. In addition, the NHEJ repair efficiency in test [2] is recorded as ≤ 50 % of normal levels. In addition, the HR repair entry in test [3] is recorded as “inhibits HR repair”. Besides, in test [4], the DNA-PKcs foci resolution result is listed as “majority of DNA-PKcs foci remained unresolved even 24 h post irradiation” and the “DNA-PKcs recruitment to DSBs” value was “robust deficiency in DNA-PKcs recruitment with foci not forming until 6 h post IR”. In test [5], the “H3K4me3 at sites of DNA damage marked by γH2AX” value is “increased H3K4me3”.
